Source: PMC12071598, “Piperazine-Substituted Pyranopyridines Exhibit Antiproliferative Activity and Act as Inhibitors of HBV Virion Production” (International Journal of Molecular Sciences, 2025)
Values after ≈ are worked out from the molar mass of the structure shown. Like-named read-outs stand apart in the source and are kept apart here.

Experiments:
[1] = test system: K562; design: method as in PMID 22677031; conditions: leukemic cell lines (including K562) ref 57; cited from earlier work
[2] = test system: SARS-CoV-2; assay: microbe, parasite or virus in culture; assay type: cell-based; conditions: for IC50: Severe acute respiratory syndrome coronavirus 2, Vero C1008, read-out: SARS-CoV-2 IC50, µM
[3] = test system: HepaRG; assay: Cytotoxicity towards non-tumor differentiated HepaRG cells, MTT; assay type: cell-based, human; conditions: concentration decreasing number of viable cells by 50%; for IC50: Homo sapiens
[4] = test system: NDV; assay: microbe, parasite or virus in culture; assay type: cell-based, Newcastle disease virus; conditions: avian paramyxovirus 1, 48 h, read-out: NDV IC50, µM
[5] = test system: SH-SY5Y; assay: Antiproliferative activity, crystal violet staining, SH-SY5Y; assay type: cell-based; conditions: Homo sapiens, SH-SY5Y neuroblastoma, 72 h
[6] = test system: Nrf2/ARE pathway; assay: Status of Nrf2/ARE pathway, real-time RT-PCR in A549 cells; assay type: cell-based; conditions: A549, 10 µM, three days
Method: Increased ROS production is often counteracted by the induction of antioxidant enzymes, many of which are controlled by the Nrf2 transcription factor [49]. So, we analyzed if the compounds could have activated this antioxidant defense system.
A possible effect of the least-toxic 3 compounds (DO11-37, DO11-45, and DO11-47) on the status of Nrf2/ARE pathway was analyzed by quantification of expression of Nrf2 and Nrf2-dependend genes using real-time PCR analysis. A549 cells were seeded in 6-well plates at a density of 3.09 × 10^5 cells/well in DMEM-F12 media supplemented with FBS and glutamine and treated with 10 µM compounds for three days. Next, total RNA was isolated using CleanRNA standard kit (Evrogen) with subsequent treatment with DNAseI (Roche, Basel, Switzerland), and 2 µg of RNA from each sample was reverse-transcribed using random hexamer primer and mint reverse transcriptase according to manufacturer’s protocol and subjected to real-time PCR as described previously using primers listed in the Table 5.

[7] = test system: HeLa; assay: Antiproliferative activity, MTT assay, HeLa; assay type: cell-based; conditions: Homo sapiens, HeLa cervix carcinoma, 72 h
[8] = Cytotoxicity by MTS assay in MDCK cells; assay type: cell-based; conditions: dog, read-out: Influenza A Virus CC50
Method: Production of influenza A virus (H1N1) stock and its infection of MDCK cells, as well as infection of Vero E6 cells with SARS-CoV-2, were described previously. Cytotoxicity of the compounds towards MDCK and VeroE6 cells was assessed by seeding 18,000 cells/well of […] plates in 0.1 mL DMEM, treating with the compounds for 66 h, and measuring cell viability by MTS assay. As positive controls, oseltamivir and N-hydroxicytidine were used (obtained from Sigma).
The compounds were added at non-toxic concentrations in serum-free DMEM to the respective cells; one hour later, the serial 10-fold dilutions of influenza virus or SARS-CoV-2 were added in serum-free medium, and antiviral activity was determined by the reduction in the infectious titer of the virus by cytopathic action (CPE). Calculation of 50% cytotoxic concentration (CC50) and 50% effective concentration (IC50) was performed by standard methods using Microsoft Excel 5.0 and GraphPad Prism 8 (GraphPad Software Inc., Boston, MA, USA).

[9] = test system: K562; assay: Antiproliferative activity, MTT assay, K562; assay type: cell-based; conditions: Homo sapiens, K562 chronic myeloid leukemia, 72 h
[10] = test system: Influenza A virus; assay: microbe, parasite or virus in culture; assay type: cell-based, influenza A virus (H1N1)
[11] = test system: DU145; assay: Antiproliferative activity, MTT assay, DU145; assay type: cell-based; conditions: Homo sapiens, DU-145, DU145 prostate carcinoma, 72 h
[12] = test system: VV; assay: microbe, parasite or virus in culture; assay type: cell-based; conditions: Orthopoxvirus vaccinia, 48 h, read-out: VV IC50, µM
[13] = test system: HSV-1; assay: microbe, parasite or virus in culture; assay type: cell-based, herpes simplex virus type 1; conditions: Human alphaherpesvirus 1, 48 h, read-out: HSV-1 IC50, µM
[14] = test system: hepatitis B virus (HBV); assay: microbe, parasite or virus in culture; assay type: cell-based; conditions: Hepatitis B virus, 144 h
[15] = test system: A549; assay: Antiproliferative activity, MTT assay, A549; assay type: cell-based; conditions: Homo sapiens, A549 lung carcinoma, 72 h
[16] = test system: PV1; assay: microbe, parasite or virus in culture; assay type: cell-based, poliovirus type 1; conditions: Enterovirus C, 48 h, read-out: PV1 IC50, µM
[17] = test system: A549; conditions: read-out: IC50 against A549; cited from earlier work
[18] = test system: H1299 cells; assay: Lysosome accumulation, LysoGreen in H1299 cells; assay type: cell-based; conditions: H1299, 72 h
Method: (§1) H1299 cells were seeded at 750 cells/well density in 96-well plate, treated with drugs for 72 h and then stained with 1 ug/mL Hoechst-33342 (Lumiprobe, Moscow, Russia), 100 nM TMRE (Lumiprobe, Russia) potential-dependent mitochondria stain, 100 nM LumiTracker LysoGreen (Lumiprobe, Russia) stain for acidic lysosomes, and 0.33 ug/mL Tubulin Tracker Deep Red (Invitrogen, USA). Cells were stained at 37 °C for 30 min with all stains, except for LysoGreen, which was added 5 min before imaging. Cells were washed once and imaged in DMEM with low autofluorescence (BioinnLabs, Rostov na Donu, Russia) with Leica DMI8 automated microscope (Wetzlar, Germany). Fluorescent imaging was performed using 10× objective with the following parameters: for Hoechst-33342 excitation 325–375 nm and emission 435–485 nm, LysoGreen 460–500/512–542 nm, TMRE 541–551/565–605 nm, and Tubulin Tracker 590–650/662–738 nm. For nuclei segmentation, we applied cyto3 model from Cellpose v3 [42] to Hoechst-33342 images, and cell cytoplasm was segmented using merged TMRE and Tubulin Tracker images with Sauvola propagation method in CellProfiler v4.2 [43]. Integrated intensity of TMRE and LysoGreen fluorescence for each cell were calculated using CellProfiler. […] Experiments were repeated two independent times, and 4 random images were recorded each time.

[19] = test system: H1299 cells; assay: Labile Fe2+ levels, HMRhoNox-M in H1299 cells; assay type: cell-based; conditions: H1299, 72 h
Method: To analyze cell death mechanisms, we stained cells NucView 488 (Biotium, Fremont, CA, USA) probe for caspase 3 and 7 activity, 1 ug/mL of non-permeable DNA dye 7-AAD (BioinnLabs, Russia), and stain for labile Fe2+ HMRhoNox-M (Lumiprobe, Russia). Cells were treated with drugs for 72 h and then stained for 30 min with 2 uM NucView 488 and 2 uM HMRhoNox-M at 37 °C. Then, cells were washed once in DMEM with low autofluorescence, then 1 ug/mL 7-AAD was added, and cells were imaged using Leica DMI8 automated microscope. Fluorescent imaging was performed using 10x objective with the following parameters: for Hoechst-33342 excitation 325–375 nm and emission 435–485 nm, NucView 488 460–500/512–542 nm, HMRho-Nox-M 541–551/565–605 nm, and 7-AAD 590–650/662–738 nm. Cells were segmented using images in bright field with cyto3 model from Cellpose and then processed in CellProfiler. 7-AAD and NucView 488 images were used to segment nuclei of necrotic or apoptotic cells in CellProfiler. If a cell contained nucleus stained with NucView 488, it was considered as apoptotic, and if it contained a nucleus stained only with 7-AAD, it was considered as necrotic. HMRhoNox-M signal was analyzed as mean fluorescence intensity per cell. Experiments were repeated two independent times, and 4 random images were recorded each time.

[20] = test system: H1299 cells; assay: Cell death in H1299 cells, NucView 488 caspase 3/7 and 7-AAD staining; assay type: cell-based; conditions: H1299, 72 h; 2.5 and 5 µM DO11-46 or 5 and 10 µM DO11-48
Method: To investigate the mechanism of the cytotoxic action of piperazine-substituted pyranopyridines, we evaluated two compounds, namely, DO11-46 and DO11-48, that acted in submicromolar concentrations. The first step was to which type of cell death they induce. This was carried out by staining H1299 cells with 7AAD dye that stains non-viable cells (with damaged membrane) and NucView-488 dye for caspase 3/7 activity as they are activated during apoptosis. Imaging and analysis protocols for H1299 were established earlier, and cells were imaged using automated microscopy and then analyzed using Cellpose and CellProfiler.
To analyze cell death mechanisms, we stained cells NucView 488 (Biotium, Fremont, CA, USA) probe for caspase 3 and 7 activity, 1 ug/mL of non-permeable DNA dye 7-AAD (BioinnLabs, Russia), and stain for labile Fe2+ HMRhoNox-M (Lumiprobe, Russia). Cells were treated with drugs for 72 h and then stained for 30 min with 2 uM NucView 488 and 2 uM HMRhoNox-M at 37 °C. Then, cells were washed once in DMEM with low autofluorescence, then 1 ug/mL 7-AAD was added, and cells were imaged using Leica DMI8 automated microscope. […] HMRhoNox-M signal was analyzed as mean fluorescence intensity per cell. Experiments were repeated two independent times, and 4 random images were recorded each time.

[21] = test system: H1299 cells; assay: Mitochondrial membrane potential, TMRE in H1299 cells; assay type: cell-based; conditions: H1299, 72 h
Method: as §1

[22] = test system: A549 cells; assay: Intracellular ROS assay, DCFH2-DA in A549 cells; assay type: cell-based; conditions: A549, 10 µM, 72 h
From the text: As cell death is often triggered by increased production of reactive oxygen species (ROS), the next step was to evaluate if our compounds act as pro-oxidants. ROS production was accessed using cell-permeable redox sensitive DCFH2-DA dye. […] As one of the main sites of ROS production is mitochondria, we also evaluated their membrane potential during treatment with either DO11-46 or DO11-48. […] Lysosome activation often accompany late stages of apoptosis, which is in good accordance with our data on the induction of caspase3/7 activity.
Pro-oxidant activity of the compounds was studied by quantification of ROS production using a cell-permeable fluorogenic probe 2′,7′-dichlorodihydrofluorescein diacetate (DCFH2-DA). A549 cells were seeded on a 48-well plate at a density of 10,000 cells/well. Twenty-four hours later, the compounds were added to 10 µM concentration in quadruplicate, and the cells were kept for 72 h. As a positive control, A549 cells were treated with 1 mM H2O2 for 2 h prior analysis. Then, media were replaced with the fresh FBS-lacking DMEM supplemented with 25 µM DCFH2-DA. After 45 min incubation, the cells were washed 10 times with 500 µL PBS, resuspended in 200 µL PBS and transferred to a black 96-well plate. The fluorescence intensities (FLIs) were measured using CHAMELEON V microplate reader with excitation at 485 nm and emission at 535 nm.

[23] = read-out: Extracellular HBV DNA (Δlog10)
[24] = read-out: Intracellular Total HBV RNA (Δlog10)

Compound | SARS-CoV-2 Δlgmax [2] | IC50 [2] | IC50 [3] | IC50 [4] | IC50 [5] | IC50 [7] | CC50 at 66 h [8] | IC50 [9] | Influenza A Virus Δlgmax [10] | IC50 [11] | IC50 [12] | IC50 [13] | log reduction at 1 µM [14, 23] | log reduction at 10 µM [14, 23] | log reduction at 1 µM [14, 24] | log reduction at 10 µM [14, 24] | IC50 [15] | IC50 [16] | further results
CC(=O)C(=NNc1ccc2c(=O)cc(-c3ccccc3)oc2c1)N1CCCCC1 [11a, 7-[2-(2-oxo-1-(piperidin-1-yl)propylidene)hydrazinyl]-2-phenyl-4H-chromen-4-one] | – | – | – | – | – | – | – | – | – | – | – | – | – | – | – | – | – | – | IC50 against K562 [1]: 2.56 ± 0.57 µg/mL (≈ 6.57 µM)
COc1cccc(NC(=O)CSc2nc(N3CCNCC3)c3c(c2C#N)CC(C)(C)OC3)c1 [DO11-47, 2-[(5-Cyano-3,3-dimethyl-8-piperazin-1-yl-3,4-dihydro-1H-pyrano[3,4-c]pyridin-6-yl)thio]-N-(3-methoxyphenyl)acetamide] | 0 | > 38 µM | 437 ± 14.8 µM | > 60 µM | 36.7 ± 18.2 µM | 39.3 ± 16.9 µM | 810 µM | 12.8 ± 4.2 µM | 0 | 10 ± 2.9 µM | > 60 µM | > 60 µM | < 0.5 | < 0.5 | < 0.5 | < 0.5 | 67.8 ± 5.8 µM | > 60 µM | IC50 (µM) HepaRG [3]: almost non-toxic; expression of Nrf2, NQO1, HO-1, GCLC, and GCLM genes [6]: increase was not statistically significant
CC(=O)CN1CCN(c2ccc(C(=O)C=Cc3ccc(N(C)C)cc3)cc2)CC1 [dimethylamino-4’-[N-(2-oxopropyl)-1-piperazinyl]chalcone] | – | – | – | – | – | – | – | – | – | – | – | – | – | – | – | – | – | – | IC50 [17]: 0.19 µM
COc1ccccc1NC(=O)CSc1nc(N2CCNCC2)c2c(c1C#N)CC(C)(C)OC2 [DO11-48, 2-[(5-Cyano-3,3-dimethyl-8-piperazin-1-yl-3,4-dihydro-1H-pyrano[3,4-c]pyridin-6-yl)thio]-N-(2-methoxyphenyl)acetamide] | 0 | > 10 µM | 10.9 ± 1.6 µM | > 3.75 µM | 18.1 ± 5.1 µM | 2.2 ± 0.6 µM | 830 µM | 0.5 ± 0.1 µM | 0 | 2.5 ± 1.2 µM | > 3.75 µM | > 3.75 µM | < 0.5 | < 0.5 | < 0.5 | < 0.5 | 3.5 ± 0.7 µM | > 3.75 µM | accumulation of lysosomes [18]: induced the accumulation of lysosomes; levels of Fe2+ ions [19]: did not affect; number of apoptotic and necrotic cells [20]: increased the number of apoptotic and necrotic cells; mitochondrial membrane potential [21]: neither of them caused mitochondrial dysfunction; ROS generation [22]: significantly increased ROS generation
